From PMC12293604, “Anticancer Effect of Nature-Inspired Indolizine-Based Pentathiepines in 2D and 3D Cellular Model” (Cancers, 2025) come the findings set out here.

In data set [1] the test system is MCF7. Briefly: MTT cell viability assay, MCF7. Type of data set: cell-based. The following applies: Homo sapiens, MCF7, 48h treatment, mean ± S.D. How it is done:
(§1) The human cancer cell lines MCF7 (HTB-22, breast adenocarcinoma), MDA-MB-231 (HTB-26, breast adenocarcinoma), HCT116 (CCL-247, colorectal carcinoma), and A549 (CRM-CCL-185, lung carcinoma) were obtained from the American Type Culture Collection (ATCC, Manassas, VA, USA). The fibroblast cell line CR9, kindly provided by Dr. Guven, was maintained in ISCOVE medium. HCT116 cells were cultured in Dulbecco’s Modified Eagle Medium (DMEM), whereas A549, MCF7, and MDA-MB-231 cells were maintained in Roswell Park Memorial Institute 1640 (RPMI-1640) medium. All media were supplemented with 10% fetal bovine serum (FBS), 1% L-glutamine, and 0.5% antibiotic mixture (penicillin, streptomycin, and neomycin). Cell cultures were maintained at 37 °C in a humidified atmosphere with 5% CO2, following standard culture protocols. Additionally, for HCT116 cells, the culture medium was further supplemented with 1% sodium pyruvate and 1% non-essential amino acids.
(§2) To evaluate the impact of the tested PTEs on cell viability, a colorimetric MTT assay was performed as previously described. Briefly, cells were seeded in 96-well microplates at initial densities of 5 × 10^3 cells per well for the MCF7, MDA-MB231, and A549 cell lines, and 4 × 10^3 cells per well for HCT116 cells. After an initial 24 h incubation period to allow for cell attachment and growth, the cultures were treated with different concentrations of PTEs (0.25–20 µM). Following 48 h of treatment, 50 μL of MTT solution (2 mg/mL in PBS) was added to each well, and the plates were incubated at 37 °C for 3 h to allow for MTT reduction by metabolically active cells. The resulting formazan crystals were solubilized, and cell viability was measured by recording the absorbance at 570 nm using an iMark Microplate Reader (BIORAD, Segrate, Milan, Italy). The cytotoxic effectiveness of the compounds was expressed as IC50 values, which were calculated from dose–response curves fitted with non-linear regression analysis using Calcusyn version 1.1.4. software (Biosoft, Cambridge, UK).
In general terms: Tetrazolium dyes change colour on reduction, which living cells bring about.

Data set [2] relates to HCT116. The data set can be described thus: MTT cell viability assay, HCT116. Format: cell-based. The note with it: Homo sapiens, HCT-116, HCT116, 48h treatment, mean ± S.D. How it is done:
as §1, §2

In data set [3] the test system is MCF7, MDA-MB231, A549 and HCT116 cells. The data set can be described thus: Apoptotic cell death, flow cytometry (sub-G1, PI). The note with it: 48 h treatment at IC50 concentration, vs. untreated controls. Type of data set: cell-based, human. The procedure: (§3) The potential of the tested PTE derivatives to induce apoptotic and/or necrotic cell death, as well as to cause alterations in cell cycle distribution, was evaluated following a 48 h exposure to their respective IC50 concentrations, using flow cytometric analysis as previously described. Briefly, the indicated cell lines were seeded in 12-well plates (3 × 10^5 cells/well) and treated 24 h post-seeding. At the end of the treatment period, following harvesting, cells were washed with PBS and fixed in ice-cold 70% ethanol at −20 °C for a minimum duration of 45 min, to assess apoptotic cell death and perform cell cycle analysis. After fixation, cells were washed again with PBS and stained with a propidium iodide (PI)/RNase solution (50 µg/mL PI and 30 U/mL RNase) in PBS for 15 min at room temperature.
(§4) Flow cytometric analysis was performed using a FACScalibur flow cytometer (Becton Dickinson, Milan, Italy), equipped with a 15 mW, 488 nm air-cooled argon ion laser. Data were acquired and analyzed with CellQuestPRO version 5.1 software. PI fluorescence was detected using a 575 nm band-pass filter. The percentage of apoptotic cells was determined by identifying sub-G1 peaks in monoparametric histograms obtained in logarithmic mode. For cell cycle distribution, PI fluorescence was also analyzed with monoparametric histograms, but data were collected in linear mode.

For data set [4] the test system is unchanged. Briefly: Intracellular ROS levels (DCFH-DA), summary across cell lines. The following applies: 48 h at IC50 concentration, four cell lines. Format: cell-based, human. How it is done: (§5) Intracellular ROS levels were quantified using 2′,7′-dichlorodihydrofluorescein diacetate (DCFH-DA) as a fluorescent probe. After 48 h of treatment, cells were collected, rinsed with PBS, and incubated in a PBS solution containing 10 µM DCFH-DA. Following incubation, fluorescence corresponding to oxidized fluorescein was measured using a 530 nm band-pass filter. ROS production was expressed in arbitrary units based on the median fluorescence intensity (MFI).

Data set [5] has as its system CR9 human fibroblast cells. Briefly: MTT cell viability assay, CR9 fibroblasts. Format: cell-based. The following applies: 48h treatment, mean ± S.D. The procedure: as §1, §2
For data set [6], the system named is HCT116. Briefly: Cell cycle distribution, flow cytometry, HCT116. Format: cell-based, human. The following applies: HCT116, 48 h at equitoxic (IC50) concentrations. How it is done: as §3, §4
In general terms: A flow cytometer gives signals particle by particle.

For data set [7], the system named is HCT116. Briefly: Necrotic cell death, flow cytometry (PI without fixation), HCT116. Type of data set: cell-based, human. The following applies: HCT116, 48 h treatment at IC50 concentration. How it is done: as §3, §4
Necrotic cell death was assessed by omitting the ethanol fixation step from the staining protocol, thereby enabling propidium iodide (PI) to penetrate membrane-compromised cells, indicative of necrosis.

Data set [8] relates to MDA-MB231. The data set can be described thus: MTT cell viability assay, MDA-MB231. Format: cell-based. The note with it: Homo sapiens, MDA-MB-231, MDA-MB231, 48h treatment, mean ± S.D. The procedure: as §1, §2
Data set [9] deals with MDA-MB231. The data set can be described thus: Cell cycle distribution, flow cytometry, MDA-MB231. Type of data set: cell-based, human. The note with it: MDA-MB231, 48 h at equitoxic (IC50) concentrations. How it is done:
as §3, §4

The test system of data set [10] is MDA-MB231. The data set can be described thus: Intracellular ROS levels (DCFH-DA), MDA-MB231. Format: cell-based, human. The following applies: MDA-MB231, 48 h at IC50 concentration, vs. CTR. How it is done: as §5
Data set [11] has as its system HCT116. Briefly: Hydrosulfide production (DNS-N3 probe), HCT116. Type of data set: cell-based, human. The following applies: HCT116, 48 h at IC50 concentration. How it is done:
(§6) PTEs-induced sulfide production was evaluated using dansyl azide (DNS-N3) as a probe. DNS-N3 is non-fluorescent itself, while in the presence of hydrosulfide, the azide transforms into the dansyl amide and fluorescence is switched on. After 48 h of treatment, cells were harvested, washed with PBS, and incubated in a PBS solution containing 200 μM DNS-N3. Following 30 min incubation at 37 °C, fluorescence increase was measured through a 575 nm band-pass filter. The levels of hydrosulfide production were assessed and reported in arbitrary units, calculated from the median fluorescence intensity (MFI) measurements. For all flow cytometric analyses, untreated cells (i.e., not exposed to PTE compounds) were used as negative controls.

For data set [12], the system named is A549. Briefly: MTT cell viability assay, A549. Format: cell-based. The note with it: Homo sapiens, A549, 48h treatment, mean ± S.D. The procedure: as §1, §2
The subject of data set [13] is MCF7. Briefly: Intracellular ROS levels (DCFH-DA), MCF7. Type of data set: cell-based, human. The note with it: MCF7, 48 h at IC50 concentration, vs. CTR. How it is done:
as §5

In data set [14] the test system is MCF7, MDA-MB-231, A549, and HCT116 cells. Briefly: MTT cell viability assay, summary across the cell line panel. Format: cell-based, human. The note with it: 48 h treatment, across tested cell lines. The procedure:
The fibroblast cell line CR9, kindly provided by Dr. Guven, was maintained in ISCOVE medium. […] All media were supplemented with 10% fetal bovine serum (FBS), 1% L-glutamine, and 0.5% antibiotic mixture (penicillin, streptomycin, and neomycin). Cell cultures were maintained at 37 °C in a humidified atmosphere with 5% CO2, following standard culture protocols. Additionally, for HCT116 cells, the culture medium was further supplemented with 1% sodium pyruvate and 1% non-essential amino acids.
as §2, with “Following 48 h of treatment, 50 μL of MTT solution (2 mg/mL in PBS) was added to each well, and the plates were incubated at 37 °C for 3 h to allow for MTT reduction by metabolically active cells.” left out

Data set [15] deals with MCF7, MDA-MB231, A549 and HCT116 cell lines. The data set can be described thus: Hydrosulfide production (DNS-N3 probe), summary across cell lines. Format: cell-based, human. The following applies: 48 h at IC50 concentration, all cell lines. The procedure: as §6

The term IC50 denotes the concentration at which inhibition is half-maximal. A higher IC50 goes with weaker potency. As for `Cc1c2c(c3ccccn13)SSSSS2` [2^Me], the concentration for half-maximal inhibition (IC50) in [1] worked out at 4.77 ± 0.14 µM; in [2], 2.27 ± 0.34 µM; in data set [5], 7.91 ± 0.32 µM; in data set [8], 1.45 ± 0.04 µM; in data set [12] it was 2.54 ± 0.27 µM. For the same compound, in [3], the apoptotic cell death entry is listed as “most potent inducers of apoptosis”. In addition, in [4], the “ROS production (ranking in words)” value is listed as “better ROS producers”. For the same compound, the “cell cycle shift: decrease in the G0/G1 phase population with G2/M phase accumulation” value in data set [6] and in [9] was “triggered similar effects” each time. The “necrosis relative to apoptosis” value in data set [7] is recorded as “higher levels of necrosis relative to apoptosis”. The “increase in ROS production” value in data set [10] and in data set [13] was “statistically significant” throughout. Also, in data set [11], the sulfide increase entry is given as “did not induce sulfide increase”. The results for the “cytotoxic potency (in words)” value in data set [14], in [14] (listed as 2^PG) and in data set [14] (listed as 2^Ph) were “noteworthy efficacy”, “highest cytotoxic potency” and “lowest cytotoxic activity”, respectively. Also, in data set [15], the “sulfide production (in words)” value is listed as “most potent inducers of sulfide production”.
